Test results as given in US20140328861A1, “Combination of CRTH2 Antagonist and a Proton Pump Inhibitor for the Treatment of Eosinophilic Esophagitis” (Atopix Therapeutics Limited, priority 2011, published 2014).

System: patients with active eosinophilic esophagitis (esophageal eosinophil load)
Assay: 8 week randomized, double-blind, placebo-controlled study in patients with active eosinophilic esophagitis
Type: in vivo, human
Experimental: The study was a randomized, double-blind, placebo-controlled, single-center study of (5-fluoro-2-methyl-3-quinolin-2-ylmethyl-indo-1-yl)-acetic acid (OC000459) for 8 weeks in patients with active (≧20 eos/hpf and symptoms), corticosteroid-dependent, and/or -resistant eosinophilic esophagitis (EoE). The study compared patients taking 100 mg of OC000459 twice daily with patients taking a placebo twice daily. The study consisted of 26 patients with 14 patients taking OC000459 and 12 patients taking the placebo. Pre- and post-treatment disease-activity was assessed clinically, endoscopically, histologically, and via biomarkers. The primary endpoint was the reduction of the esophageal eosinophil load.
5. Free of all medications for EoE (including topical steroids) for at least 2 weeks prior to baseline and free of systemic steroids for at least 90 days before screening. A proton-pump inhibitor is allowed if required for treatment of secondary acid reflux.
After an 8-week treatment of active EoE with OC000459, the total mean eosinophil number decreased from 114.7 to 74.2 eos/hpf, whereas under placebo, no reduction was observed (from 102.8 to 99.4 eos/hpf).
A possible explanation for this is that acid reflux may be responsible for the eosinophilic inflammation in the distal esophagus which is consistent with reports that eosinophilia is reduced by PPIs in some patients with EoE (Molina-Infante et al., 2011). […] It is therefore proposed that the combination of CRTH2 antagonists with PPIs will be effective in the treatment of EoE by blocking both the allergic and acid reflux pathways. Three patients were treated with both OC000459 and esomeprazole, either 20 mg or 40 mg once a day.

Cc1c(Cc2ccc3ccccc3n2)c2cc(F)ccc2n1CC(=O)O [OC000459, (5-fluoro-2-methyl-3-quinolin-2-ylmethyl-indo-1-yl)-acetic acid]
effect on eosinophil load, proximal versus distal esophagus (8 weeks, 100 mg twice daily, compared to placebo (FIG. 1)): more pronounced in the proximal upper esophagus than in the distal esophagus | eosinophilic load in the distal esophagus (patients with EoE, 8 weeks): not | eosinophilic load in the proximal esophagus (patients with EoE, 8 weeks): reduces eosinophilic load | total mean eosinophil number, after 8-week treatment (patients with active EoE, 100 mg twice daily, 8 weeks): 74.2 eos/hpf | total mean eosinophil number, before treatment (patients with active EoE, baseline, 100 mg twice daily group): 114.7 eos/hpf
